According to US7320981B2, “Variolin derivatives as anti-cancer agents” (Pharma Mar, S.A., priority 2000, dated 2008):
Where two headings read alike, the source gives them in different places.

Key:
HT-29 = test: SRB cell growth/viability assay, HT-29; conditions: for GI50: read-out: HT-29 GI50
From the text: (§1) A colorimetric type of assay, using sulforhodamine B (SRB) reaction has been adapted for a quantitative measurement of cell growth and viability: see Skehan, P. A. et al. J. Natl. Cancer Inst., 1990, 82, 1107-1112. This form of the assay employs 96 well cell culture microplates of 9 mm diameter (Faircloth, G. T.; Stewart, D. and Clement, J. J., Journal of Tissue and Culture Methods, 1983, 11, 201-205; Mosmann, T. Journal of Immunological Methods, 1983, 65, 55-63.).
(§2) Most of the cell lines are obtained from American Type Culture Collection (ATCC) derived from different human cancer types. Cells are maintained in RPMI 1640 10% FBS, supplemented with 0.1 g/l penicillin and 0.1 g/l streptomycin sulfate and then incubated at 37° C., 5% CO2 and 98% humidity. For the experiments, cells were harvested from subconfluent cultures using trypsin and resuspended in fresh medium before plating.
(§3) Cells are seeded in 96 well microtiter plates, at 5×10^3 cells per well in aliquots of 195 μl medium, and they are allowed to attach to the plate surface by growing in drug free medium for 18 hours. Afterward, samples are in aliquots of 5 pi in a ranging from 10 to 10-8 μg/ml dissolved in DMSO/EtOH (0.2% in PS buffer). After 48 hours exposure, the antitumour effect are measured by the SRB methodology: cells are fixed by adding 50 μl of cold 50% (w/v) trichloroacetic acid (TCA) and incubating for 60 minutes at 4° C. Plates are washed with deionized water and dried. 100 μl of SRB solution (0.4% w/v in 1% acetic acid) is added to each microtiter well and incubated for 10 minutes at room temperature. Unbound SRB is removed by washing with 1% acetic acid. Plates are air-dried and bound stain is solubilized with Tris buffer. Optical densities are read on an automated spectrophotometric plate reader at a single wavelength of 490 nm.
(§4) The values for mean +/− SD of data from triplicate wells are calculated Some parameters for cellular responses can be calculated: […], TGI=total growth inhibition (cytostatic effect) and LC=cell killing (cytotoxic effect).

A-549 = test: SRB cell growth/viability assay, A-549; conditions: for GI50: read-out: A-549 GI50
From the text: as §1, §2, §3, §4

[1] = Homo sapiens, HT-29, 48 h, read-out: HT-29 LC50
[2] = Homo sapiens, A549, 48 h, read-out: A-549 LC50

Compound	GI50 (HT-29; Homo sapiens, HT-29, 48 h) [µM]	CC50 (HT-29; [1]) [µM]	GI50 (A-549; Homo sapiens, A549, 48 h) [µM]	CC50 (A-549; [2]) [µM]	CC50 (HT-29) [µM]	GI50 (HT-29; Table 2, HT-29, 48 hours exposure, SRB) [µM]	CC50 (A-549) [µM]	GI50 (A-549; Table 2, A-549, 48 hours exposure, SRB) [µM]
Nc1nccc2c(-c3ccnc(N(C(=O)/C=C/c4ccccc4)C(=O)/C=C/c4ccccc4)n3)c3cccnc3n12 [Compound 24a, N′-biscinnamoyldeoxyvariolin]	4.9	> 120	0.12	12	–	–	–	–
O=C(C=Cc1ccccc1)Nc1nccc2c(-c3ccnc(N(C(=O)/C=C/c4ccccc4)C(=O)/C=C/c4ccccc4)n3)c3cccnc3n12 [Compound 24b, N′-biscinnamoyl-N-cinnamoyldeoxyvariolin]	1.5	75	3	75	–	–	–	–
Nc1nccc2c(-c3ccnc(NC(=O)C(F)(F)F)n3)c3cccnc3n12 [Compound 26, N′-trifluoroacetyldeoxyvariolin]	0.8	110	0.27	27	–	–	–	–
COc1nccc(-c2c3cccnc3n3c(N)nccc23)n1 [Compound 27, methoxydeoxyvariolin]	0.17	34	0.068	2.7	–	–	–	–
Nc1nccc2c(-c3ccnc(N4CCCCC4)n3)c3cccnc3n12 [Compound 28a, piperidinyldeoxyvariolin]	5.8	> 29	8.7	> 29	–	–	–	–
CCNc1nccc(-c2c3cccnc3n3c(N)nccc23)n1 [Compound 28b, N′-ethyldeoxyvariolin]	> 33	> 33	> 33	> 33	–	–	–	–
CCCCN(C)c1nccc(-c2c3cccnc3n3c(N)nccc23)n1 [Compound 28c, N′-butylmethyldeoxyvariolin]	2.9	23	2.9	23	–	–	–	–
Nc1nccc2c(-c3ccnc(NCc4ccccc4)n3)c3cccnc3n12 [Compound 28d, N′-benzyldeoxyvariolin]	1.4	22	1.4	27	–	–	–	–
COc1ccc(CNc2nccc(-c3c4cccnc4n4c(NCc5ccc(OC)cc5)nccc34)n2)cc1 [Compound 29, N′,N-bis(p-methoxybenzyl)deoxyvariolin]	> 97	> 97	> 97	> 97	–	–	–	–
bis-sulfinyldeoxyvariolin [Compound 20]	–	–	–	–	> 130	110	> 130	54
